Results reported in ChEMBL document CHEMBL4052642, “4-Methyl-6,7-dihydro-4H-triazolo[4,5-c]pyridine-Based P2X7 Receptor Antagonists: Optimization of Pharmacokinetic Properties Leading to the Identification of a Clinical Candidate” (J Med Chem, 2017).
Converted amounts (≈) assume the structure as drawn. The source made the active and inactive calls. No cut-off for these calls is given here.

Tests used:
[1] = Protein binding in rat plasma at 1 uM after 6 hrs by equilibrium dialysis method; format: ADME, cell-free; details: read-out: PPB (converted)
[2] = Antagonist activity at P2X7 in dog whole blood assessed as inhibition of BzATP-induced IL-1beta release preincubated for 30 mins followed by BzATP addition measured after […] by ELISA; details: Canis lupus familiaris
Canis familiaris [3] = test: Toxicity in dog at 30 to 300 mg/kg administered via oral gavage on day 1 and day 5 by hematoxylin-eosin staining-based necroscopic method; format: organism-based, Canis lupus familiaris; details: in vivo
Rattus norvegicus [4] = test: Toxicity in rat at 62.5 to 250 mg/kg administered via oral gavage on day 1 and day 4; format: organism-based; details: in vivo
[5] = Solubility of compound in phosphate buffer at pH 2 after 3 days; format: physicochemical
Homo sapiens = species: Homo sapiens; test: Toxicity in human at 0.5 to 600 mg
Rattus norvegicus [6] = test: Ex vivo receptor occupancy at P2X7 in po dosed Sprague-Dawley rat brain assessed as plasma concentration required to achieve EC50 after 60 mins by autoradiography; format: functional, organism-based
Rattus norvegicus [7] = test: Inhibition of Bz-ATP-induced IL-1beta release in po dosed Sprague-Dawley rat hippocampus preincubated for 1 hr followed by Bz-ATP challenge measured after 2 hrs by microdialysis method; format: functional, organism-based
Liver [8] = test: Metabolic stability in dog liver microsomes at 1 uM after 5 to 60 mins by LC-MS/MS analysis; format: ADME, Canis lupus familiaris, microsome
[9] = Half life in cynomolgus monkey at 1 mg/kg, iv by LC-MS/MS analysis; format: ADME, organism-based, Macaca fascicularis; details: in vivo
Liver [10] = test: Metabolic stability in mouse liver microsomes at 1 uM after 5 to 60 mins by LC-MS/MS analysis; format: ADME, microsome
Rattus norvegicus [11] = test: Ex vivo receptor occupancy at P2X7 in po dosed Sprague-Dawley rat brain after 60 mins by autoradiography; format: functional
[12] = Half life in beagle dog at 0.5 mg/kg, iv by LC-MS/MS analysis; format: ADME, organism-based, Canis lupus familiaris; details: in vivo
[13] = Solubility of compound in phosphate buffer at pH 7 after 3 days; format: physicochemical
[14] = Protein binding in human plasma at 1 uM after 6 hrs by equilibrium dialysis method; format: ADME, cell-free; details: read-out: PPB (converted)
[15] = Clearance in Sprague-Dawley rat at 1 mg/kg, iv or 5 mg/kg, po by LC-MS/MS analysis; format: ADME, organism-based; details: in vivo
[16] = Volume of distribution at steady state in cynomolgus monkey at 1 mg/kg, iv or 5 mg/kg, po by LC-MS/MS analysis; format: ADME, organism-based, Macaca fascicularis; details: in vivo, read-out: Vdss
[17] = biological target: P2X purinoceptor 7 (Rattus norvegicus) (UniProt Q64663); test: Displacement of [3H]-(6S)-7-[[2-chloro-3-(trifluoromethyl)phenyl]methyl]-6-methyl-3-pyrimidin-2-yl-5,6dihydro[1,2,4]triazolo[4,3-a]pyrazin-8-one from P2X7 in rat frontal cortex at 100 pM to 10 uM
Sequence of P2X purinoceptor 7 (Rattus norvegicus) (Q64663 whole entry): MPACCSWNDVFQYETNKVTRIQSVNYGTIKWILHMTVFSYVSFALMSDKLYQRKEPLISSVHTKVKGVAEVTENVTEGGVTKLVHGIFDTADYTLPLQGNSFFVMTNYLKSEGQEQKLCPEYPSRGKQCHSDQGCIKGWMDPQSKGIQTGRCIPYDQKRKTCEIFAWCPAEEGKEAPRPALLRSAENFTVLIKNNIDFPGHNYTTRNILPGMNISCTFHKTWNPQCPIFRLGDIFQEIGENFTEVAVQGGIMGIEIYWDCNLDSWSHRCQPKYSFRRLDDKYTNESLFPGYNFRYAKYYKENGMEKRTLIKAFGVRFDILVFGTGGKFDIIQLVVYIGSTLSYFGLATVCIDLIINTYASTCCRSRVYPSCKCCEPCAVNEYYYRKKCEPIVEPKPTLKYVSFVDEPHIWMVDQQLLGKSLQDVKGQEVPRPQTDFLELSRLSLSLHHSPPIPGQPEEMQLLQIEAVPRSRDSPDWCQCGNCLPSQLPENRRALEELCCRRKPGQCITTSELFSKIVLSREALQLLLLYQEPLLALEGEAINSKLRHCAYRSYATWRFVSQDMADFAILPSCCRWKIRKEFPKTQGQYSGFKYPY

[18] = Oral bioavailability in Sprague-Dawley rat at 5 mg/kg by LC-MS/MS analysis; format: ADME, organism-based; details: in vivo
[19] = biological target: P2X2/P2X3 heterotrimeric receptor (Homo sapiens) (UniProt Q9UBL9+P56373); test: Antagonist activity at P2X2/3 (unknown origin) assessed as inhibition of BzATP-induced calcium flux up to 10 uM preincubated for 30 mins followed by BzATP addition measured over 180 secs by FLIPR assay; format: protein-complex assay
[20] = Apparent permeability across basolateral to apical side in human Caco2 cells; format: ADME, cell-based; details: Caco-2
[21] = Volume of distribution at steady state in beagle dog at 0.5 mg/kg, iv or 2.5 mg/kg, po by LC-MS/MS analysis; format: ADME, organism-based, Canis lupus familiaris; details: in vivo, read-out: Vdss
[22] = biological target: P2X purinoceptor 4 (Homo sapiens) (UniProt Q99571); test: Antagonist activity at P2X4 (unknown origin) assessed as inhibition of BzATP-induced calcium flux up to 10 uM preincubated for 30 mins followed by BzATP addition measured over 180 secs by FLIPR assay
Sequence of P2X purinoceptor 4 (Homo sapiens) (Q99571 whole entry): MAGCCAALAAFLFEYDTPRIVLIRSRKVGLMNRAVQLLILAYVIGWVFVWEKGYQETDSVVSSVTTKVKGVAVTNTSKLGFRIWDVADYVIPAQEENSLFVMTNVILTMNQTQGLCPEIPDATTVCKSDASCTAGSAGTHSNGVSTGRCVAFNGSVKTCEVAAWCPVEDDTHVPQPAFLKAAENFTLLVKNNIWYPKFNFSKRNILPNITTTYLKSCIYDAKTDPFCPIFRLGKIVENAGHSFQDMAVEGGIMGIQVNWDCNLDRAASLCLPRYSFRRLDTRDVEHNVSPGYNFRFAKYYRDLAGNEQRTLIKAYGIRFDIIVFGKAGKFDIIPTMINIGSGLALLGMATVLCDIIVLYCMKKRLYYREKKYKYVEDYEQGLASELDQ

Liver [23] = test: Metabolic stability in human liver microsomes at 1 uM after 5 to 60 mins by LC-MS/MS analysis; format: ADME, microsome
[24] = Antagonist activity at dog P2X7 assessed as inhibition of BzATP-induced calcium flux preincubated for 30 mins followed by BzATP addition measured over 180 secs by FLIPR assay; parameters: species or system Canis lupus familiaris
[25] = Apparent permeability across apical to basolateral side in human Caco2 cells; format: ADME, cell-based; details: Caco-2
Canis familiaris [26] = test: Toxicity in dog assessed as change in serum chemistry at 30 to 300 mg/kg administered via oral gavage on day 1 and day 5; format: organism-based, Canis lupus familiaris; details: in vivo
Rattus norvegicus [27] = test: Ex vivo receptor occupancy at P2X7 in Sprague-Dawley rat brain at 10 mg/kg, po after 24 hrs by autoradiography; format: functional
Rattus norvegicus [28] = test: Drug uptake in rat at 62.5 to 250 mg/kg administered via oral gavage on day 1 and day 4; format: ADME, organism-based; details: in vivo
[29] = Clearance in cynomolgus monkey at 1 mg/kg, iv or 5 mg/kg, po by LC-MS/MS analysis; format: ADME, organism-based, Macaca fascicularis; details: in vivo
P2X purinoceptor 7 = P2X purinoceptor 7 (Mus musculus, UniProt Q9Z1M0); test: Antagonist activity at P2X7 in mouse whole blood assessed as inhibition of BzATP-induced IL-1beta release preincubated for 30 mins followed by BzATP addition measured after […] by ELISA
Sequence of P2X purinoceptor 7 (Q9Z1M0 whole entry): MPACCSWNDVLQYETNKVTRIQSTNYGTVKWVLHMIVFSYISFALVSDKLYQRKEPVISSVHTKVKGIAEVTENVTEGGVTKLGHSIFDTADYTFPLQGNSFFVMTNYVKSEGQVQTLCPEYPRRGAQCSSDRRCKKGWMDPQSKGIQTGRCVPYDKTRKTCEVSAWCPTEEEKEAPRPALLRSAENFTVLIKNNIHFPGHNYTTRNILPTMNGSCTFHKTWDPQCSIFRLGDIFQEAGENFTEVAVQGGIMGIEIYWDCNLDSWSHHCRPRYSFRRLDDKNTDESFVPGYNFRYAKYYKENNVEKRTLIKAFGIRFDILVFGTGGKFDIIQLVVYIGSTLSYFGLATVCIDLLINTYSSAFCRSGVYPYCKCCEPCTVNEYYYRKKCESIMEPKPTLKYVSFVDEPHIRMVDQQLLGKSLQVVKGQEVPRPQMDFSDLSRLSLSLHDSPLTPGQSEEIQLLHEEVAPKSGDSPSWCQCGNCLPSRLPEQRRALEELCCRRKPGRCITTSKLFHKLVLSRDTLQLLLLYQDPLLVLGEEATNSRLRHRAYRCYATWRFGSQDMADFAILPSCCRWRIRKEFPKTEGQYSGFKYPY

[30] = biological target: P2X purinoceptor 3 (Homo sapiens) (UniProt P56373); test: Antagonist activity at P2X3 (unknown origin) assessed as inhibition of BzATP-induced calcium flux up to 10 uM preincubated for 30 mins followed by BzATP addition measured over 180 secs by FLIPR assay
Sequence of P2X purinoceptor 3 (Homo sapiens) (P56373 whole entry): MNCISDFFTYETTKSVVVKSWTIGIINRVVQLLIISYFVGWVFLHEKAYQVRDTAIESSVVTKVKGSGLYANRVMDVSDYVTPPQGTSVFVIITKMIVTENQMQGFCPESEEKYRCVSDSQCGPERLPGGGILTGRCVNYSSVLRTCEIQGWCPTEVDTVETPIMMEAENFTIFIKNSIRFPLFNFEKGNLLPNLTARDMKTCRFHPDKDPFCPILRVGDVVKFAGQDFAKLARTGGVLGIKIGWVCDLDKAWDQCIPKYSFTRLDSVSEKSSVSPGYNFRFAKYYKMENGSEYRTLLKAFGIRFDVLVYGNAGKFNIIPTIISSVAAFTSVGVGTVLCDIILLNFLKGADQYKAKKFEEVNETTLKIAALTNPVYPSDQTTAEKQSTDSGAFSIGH

Canis familiaris [31] = test: Oral bioavailability in beagle dog at 2.5 mg/kg by LC-MS/MS analysis; format: ADME, organism-based, Canis lupus familiaris; details: in vivo
[32] = Protein binding in mouse plasma at 1 uM after 6 hrs by equilibrium dialysis method; format: ADME, cell-free; details: read-out: PPB (converted)
Canis familiaris [33] = test: Ex vivo receptor occupancy at P2X7 in dog brain at 3 mg/kg, po after 96 hrs by autoradiography; format: functional, organism-based; details: Canis lupus familiaris
Canis familiaris [34] = test: Drug uptake in dog at 30 to 300 mg/kg administered via oral gavage on day 1 and day 5; format: ADME, organism-based, Canis lupus familiaris; details: in vivo
[35] = Half life in Sprague-Dawley rat at 1 mg/kg, iv by LC-MS/MS analysis; format: ADME, organism-based; details: in vivo
[36] = Drug uptake in dog brain at 3 mg/kg, po after 96 hrs; format: ADME, organism-based, Canis lupus familiaris; details: read-out: Drug uptake

In the case of `C[C@@H]1c2nnn(-c3ncc(F)cn3)c2CCN1C(=O)c1cccc(C(F)(F)F)c1Cl` [JNJ-54175446], the fraction unbound at 6 h, 1 µM [1] is reported as 0.122, the IC50 [2] is reported as 158 nM and the Activity (Canis familiaris [3]) is reported as “Non-Toxic”. The Activity (Rattus norvegicus [4]) was “Non-Toxic”, the solubility at 72 h [5] was 38.7 µM (≈ 17.1 µg/mL) and the Activity (Homo sapiens) was “Non-Toxic”. The Cp (Rattus norvegicus [6]) was 105 ng/mL, the inhibition (Rattus norvegicus [7]) was “Dose-dependent effect” and the Stability (Liver [8]) was “Stable”. For the same molecule, the half-life [9] was 6.9 h, the Stability (Liver [10]) was “Stable” and the Occ (Rattus norvegicus [11]) was “Dose-dependent effect”. It also gave an ED50 (Rattus norvegicus [11]; 1 h) of 0.46 mg/kg, a half-life [12] of 32 h and a solubility at 72 h [13] of 20.7 µM (≈ 9.12 µg/mL). The fraction unbound at 6 h, 1 µM [14] was 0.112, the clearance [15] was 2.9 mL/min/kg and the Vd [16] was 2.1 L/kg. For the same molecule, the inhibition [17] was “Dose-dependent effect”, the bioavailability [18] was 96% and the inhibition [19] was “inactive”. The Papp B→A [20] was 48.8 ×10⁻⁶ cm/s, the Vd [21] was 2.5 L/kg and the inhibition [22] was “inactive”. For the same molecule, the Stability (Liver [23]) was “Stable”, the pIC50 [24] was 7.9 and the Papp A→B [25] was 75.3 ×10⁻⁶ cm/s. For the same molecule, the Activity (Canis familiaris [26]) was “Non-Toxic”, the Occ (Rattus norvegicus [27]) was greater than 80% and the Drug uptake (Rattus norvegicus [28]) was “Active”. The clearance [29] was 4.4 mL/min/kg, the IC50 (P2X purinoceptor 7) was 31.6 nM and the inhibition [30] was “inactive”. For the same molecule, the F (Canis familiaris [31]) was 164%, the fraction unbound at 6 h, 1 µM [32] was 0.113 and the Occ (Canis familiaris [33]) was “Active”. The Drug uptake (Canis familiaris [34]) was “Active”, the half-life [35] was 8.6 h and the concentration at 96 h [36] was greater than 1000 nM.
